The values that follow come from PMC6222292 (Computational and Structural Biotechnology Journal, 2018).

The structures appear in SMILES notation.

The assay concerns the target T1, soluble epoxide hydrolase (sEH) (Homo sapiens, UniProt P34913).
T1 sequence (P34913 1-555): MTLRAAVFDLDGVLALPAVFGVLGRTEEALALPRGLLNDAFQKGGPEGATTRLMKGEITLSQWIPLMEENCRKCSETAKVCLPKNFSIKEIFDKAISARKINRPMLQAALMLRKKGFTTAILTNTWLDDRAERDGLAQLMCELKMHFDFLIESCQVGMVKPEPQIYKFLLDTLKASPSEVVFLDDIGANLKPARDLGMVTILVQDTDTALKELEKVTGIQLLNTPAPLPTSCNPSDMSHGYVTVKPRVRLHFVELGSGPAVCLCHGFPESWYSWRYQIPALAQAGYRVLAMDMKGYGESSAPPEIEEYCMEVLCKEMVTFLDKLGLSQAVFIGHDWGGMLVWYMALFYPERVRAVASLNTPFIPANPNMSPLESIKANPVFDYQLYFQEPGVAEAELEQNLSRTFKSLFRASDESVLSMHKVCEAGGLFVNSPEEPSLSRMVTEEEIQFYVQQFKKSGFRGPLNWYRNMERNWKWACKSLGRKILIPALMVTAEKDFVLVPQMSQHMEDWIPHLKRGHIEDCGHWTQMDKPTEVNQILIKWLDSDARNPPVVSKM
Kind of assay: fluorescent PHOME hydrolysis assay. Type of assay: biochemical.

For `O=C(/C=C/c1ccc(O)cc1)NCCc1ccc(O)cc1` [compound 1, N-trans-coumaroyltyramine], the concentration for half-maximal inhibition (IC50) came out at 9 ± 0.8 µM.

`COc1cc(/C=C/C(=O)NCCc2ccc(O)cc2)ccc1O` [compound 2, N-trans-feruloyltyramine] registered a 50% inhibitory concentration (IC50) of 10.4 ± 1.1 µM.

What is called IC50 is the concentration at which inhibition is half-maximal. Read a high IC50 as weaker potency in that assay.
